Source: patent US20060223884A1, “Compounds and compositions for use in the prevention and treatment of obesity and related syndromes” (priority 2005, published 2006)
Like-named read-outs stand apart in the source and are kept apart here.

Key:
[1] = type: in vivo; settings: ob/ob mice
Source text: The objective of this study was to evaluate the effect of chronic administration of 4-hydroxyisoleucine (4-OH, compound 14a) on food consumption and body weight gain in a genetic model of obesity, the ob/ob mouse. Body weight gain and food consumption were monitored for 1 week prior to the commencement of treatment, and then for the 56 days of treatment.
A total of 16 animals were used in the study. The animals were distributed into 2 groups (1 treated, 1 control group, all on standard chow). Each group was composed of 8 animals. The mice were randomized according to body weight values.
For the eight weeks of treatment, the test agent was dissolved in reverse osmosis water. 4-hydroxyisoleucine was aliquoted and kept at 4° C. Control animals received reverse osmosis water twice daily (group 1). Mice from group 2 were treated twice daily with 4-OH at 100 mg/kg. All groups were treated by oral gavage. Treatment commenced on Day 0 and ended on Day 56 (FIGS. 16A and 16B). Food consumption was measured daily and averaged on a weekly basis beginning one week before the start of treatment as shown in FIG. 16B.

[2] = Body weight gain in C57BU6 mice shifted to a high fat diet, analogs and isomers, 3 days (Example 9); type: in vivo; settings: C57BU6 mice on high fat diet, 100 mg/kg twice daily oral gavage
Experimental: C57BU6 mice were received at 6-7 weeks of age and fed a standard commercial chow for 1 week (acclimation period). The animals were randomized based on their body weight values, into control and treatment groups (n=6). Then, animals were shifted to a high fat diet (60% of calories from fat) and treated twice daily by oral gavage with 4-hydroxyisoleucine (4-OH, compound 14a) or different analogs and isomers of 4-OH at the dose of 100 mg per kg of body weight for 3 days. The control group (Control HFD) received vehicle (water) alone and a group was kept under standard chow (Control Lean). Body weight of the mice was recorded daily. Two different experiments were run and the effect on body weight gain of selected analogs and isomers according to the invention is presented in FIG. 22A (Experiment 1) and FIG. 22B (Experiment 2).

[3] = Weight gain and epididymal fat of DIO-C57Bl/6 mice, 4-hydroxyisoleucine and Exendin-4 alone or in combination (Example 5); type: in vivo, C57BI/6 mice; settings: s.c., 21 days
Experimental: Glycemic response was monitored by an Oral Glucose Tolerance Test (OGTT) performed on days 0, 7, 14, and 21 of treatment.
A total of 56 animals were used in the study. The animals were distributed into 7 groups (5 treated, 1 normal diet control, and 1 high fat diet control group). Each group was composed of 8 animals. […] For the three weeks of treatment, the test agents were dissolved in sterile saline for injection (USP). 4-Hydroxyisoleucine was kept at 4° C. (administration to groups 3, 4, and 7) while a frozen aliquot of Exendin-4 was thawed each dosing day for administration to groups 5, 6, and 7. Control animals received sterile saline, twice daily (groups 1 and 2). […] Animals from groups 5 and 6 received sterile saline as the AM treatment, while the PM treatment consisted of 0.05 and 0.01 mg/kg of Exendin-4, respectively. For Group 7, the AM treatment consisted of 50 mg/kg 4-OH only, while the PM treatment consisted of 0.01 mg/kg of Exendin-4+50 mg/kg of 4-OH. All groups were treated by subcutaneous injection.

[4] = Reversal of weight gain in obese wistar rats on HFHS diet (Example 11); type: in vivo; settings: 100 mg/kg twice daily oral
Source text: The aim of this study was to evaluate the effect of chronic administration of 4-hydroxyisoleucine (4-OH, Compound 14a) on food consumption, tissue weight, and body weight gain of wistar obese rats.
A total of 30 animals were used in the study. The animals were acclimated for 1 week and fed standard chow. The animals were randomized into 3 groups of 10 animals each. Two groups were fed a high fat, high sucrose diet (HFHS), and 1 untreated control group was fed standard chow over a 28 day period. Animals were housed separately and food consumption was monitored daily.
In the following period of 28 days, the feeding regimen remained the same for the 3 groups; however, 1 group fed HFHS was treated with twice daily oral administration of 4-OH at 100 mg/kg per dose. For the 28 days of treatment, 4-OH was dissolved in reverse osmosis water, aliquoted, and kept at 4° C. Untreated animals received water twice daily.

[5] = Body weight of DIO mice, 4-hydroxyisoleucine and metformin alone and in combination (Example 6); type: in vivo, C57BU6 mice
Experimental: C57BU6 mice were received at 7-8 weeks of age and fed a high fat diet (60% of calories from fat) for 8 weeks. Fasted glycemia was checked and animals with readings between 200 and 220 mg/dL were included in the study. The animals were randomized based on their body weights and glycemia values into control and treatment groups (n=8). […] The control group received vehicle (water) alone. The animals were treated for 21 days. Body weight of the mice was measured on the first day of treatment and on days 3, 7, 10, 14, 17, and 21. All data are expressed as mean±SEM.

[6] = cited from earlier work
[7] = Prevention of weight gain in Wistar rats fed a high fat, high sucrose diet (Example 10); type: in vivo; settings: Wistar rats on HFHS diet, 100 mg/kg twice daily oral
Source text: The aim of this study was to evaluate the effect of chronic administration of 4-hydroxyisoleucine (4-OH, Compound 14a) on food consumption, tissue weight, and body weight gain of normal Wistar rats fed a high fat, high sucrose diet (HFHS).
The animals were acclimated for 1 week and fed standard chow prior to the commencement of treatment, then for the 28 days of the treatment the animals were fed a high fat, high sucrose diet (HFHS). A total of 30 animals were used in the study. The animals were distributed into 3 groups each composed of 10 animals: 1 group fed HFHS with treatment, 1 untreated control group fed standard chow, and 1 untreated group fed HFHS. Animals were housed separately and food consumption was monitored daily.
For the four weeks of treatment, the test compounds were dissolved in reverse osmosis water. 4-hydroxyisoleucine (4-OH) was aliquoted and kept at 4° C. Treated animals received twice daily oral administration of 4-OH at 100 mg/kg per dose. Control animals received water twice daily.

[8] = obese wistar rats (28 days HFHS before treatment)

C[C@@H]([C@H](C)O)[C@H](N)C(=O)O [compound 14a, (2S,3R,4S)-4-Hydroxyisoleucine]
weight gain during the course of treatment ([1]; 100 mg/kg twice daily oral): moderation of weight gain
weight gain as compared to the control group ([1]; 100 mg/kg twice daily oral, Day 21 to Day 56): significantly reduced
tolerability of treatment ([1]; 100 mg/kg twice daily, oral gavage, 56 days): well tolerated
food consumption ([1]; first three weeks of treatment but not later on): slight decrease in food consumption
body weight as compared to pre-treatment values (FIG. 22B, one experiment) [2]: reduced body weight of the mice as compared to pre-treatment values
body weight gain induced by the high fat diet [2]: reduced body weight gain induced by the high fat diet
body weight gain ([3]; 4-OH 50 mg/kg twice daily, Exendin-4 0.01 mg/kg (PM), alone or in combination): decrease in body weight gain
weight of epididymal fat ([3]; 4-OH 100 mg/kg, Exendin-4 0.01 mg/kg, combination 4-OH 50 mg/kg + Exendin-4 0.01 mg/kg): reduction of the weight of epididymal fat
epididymal and peri-renal adipose tissue [4, 8]: reduction of epididymal and pen-renal adipose tissue
muscle, brown fat, and organ weight [4, 8]: not affected
tolerability of treatment [4, 8]: well tolerated
weight gain [4, 8]: Moderation of weight gain
food consumption ([4]; obese wistar rats, 28 days, could not account for the differences in adiposity): reduction in food consumption
body weight as compared to vehicle-treated mice ([5]; DIO mice, 100 mg/kg twice daily oral, 21 days, only 4-OH significant (p<0.01 4-OH, p=0.27 metformin)): reduction of their body weight
body weight compared to control DIO mice, given alone ([5]; DIO mice, 4-OH 50 mg/kg or metformin 25 mg/kg twice daily oral, 21 days): no significant effect on body weight
efficacy in reducing body weight relative to metformin ([5]; DIO mouse model, conclusion of the study): as effective as mefformin
insulinotropic and insulin sensitizing activities ([6]; Broca et al. 1999, 2000, 2004, WO 97/32577, WO 01/15689): insulinotropic and insulin sensitizing activities
antidyslipidemic activities ([6]; Narender et al. 2006): antidyslipidemic activities
epididymal and peri-renal adipose tissue ([7]; 28 days): reduction of epididymal and peri-renal adipose tissue
tolerability of treatment ([7]; 28 days): well tolerated
weight gain ([7]; 28 days): Moderation of weight gain
muscle, brown fat, and organ weight ([7]; 28 days (data not shown)): not affected
food consumption ([7]; 28 days, could not account for the differences in weight gain): reduction in food consumption
